According to patent US20090227534A1, “Pharmaceutical Composition Comprising the Combination of a Ketorolac Salt and Vitamins of the-B-Complex for the Treatment of Neuralgia” (LABORATORIOS SENOSITAN S.A. DE C.V., priority 2006, published 2009):
Where two headings read alike, the source gives them in different places. One block for each compound: values may come before it.

Experiments:
[1] = Solubility of ketorolac in water; type: physicochemical
Text: (§1) Clinical studies have shown that ketorolac is a strong and effective analgesic. […] Ketorolac is one of the few non-steroidal anti-inflammatory drugs approved for parenteral administration. However, when administered in combination with other substances, it usually presents stability problems.

[2] = Laboratory stability tests: ketorolac with acid solutions, direct combination with B-complex, light exposure; type: physicochemical
Experimental: as §1
Currently, there are no individual pharmaceutical forms for the parenteral administration of ketorolac at 15 mg/ml and B-complex, as described in this invention.
The above situation makes impossible to simply combine ketorolac and B-complex, making it necessary to research and develop a system that provides appropriate stability characteristics for parenteral administration.

[3] = cited from earlier work; for time to reach maximum plasma concentration (tmax): healthy humans
[4] = tested on: rat paw; experiment: Antinociceptive effect, heat-stimulation model in the rat paw (carrageen); type: in vivo; details: oral, measured for 6 hours
Experimental: Methodology: We worked with five groups of 8 rats each. The antinociceptive effect was evaluated through the heat-stimulation model in the rat paw. Used substances: saline solution, carrageen to produce the nociceptive effect (pain), ketorolac, riboflavin and B-complex (vitamins B1, B6 and B12). For the doses-response curve, each group received a ketorolac dose so that 0.32, 1, 1.8, 3.2 y 10 mg/kg of weight were administrated orally. The antinociceptive effect was measured for 6 hours. Latency time curves were plot on a graph (the time rat takes before moving […] its paw to avoid the pain) as a function of time. Saline solution was used as a negative control solution (establishing the base level) and carrageen to produce a sensitizing effect (inflammation). […] The following were administered: Riboflavin (alone), Ketorolac (alone), B-Complex (alone), Ketorolac and Riboflavin combination, and Ketorolac and B-Complex combination. Isobolograms were made in order to evaluate the interaction between ketorolac and B-complex using the ED25 values (effective doses) obtained from the dose-response curves for the administered drugs alone or combined.

[5] = tested on: rats; experiment: Antinociception, formalin test (1% 50 μl), second phase; type: in vivo; details: rat, phase two; for Emax: read-out: maximum effect (decrease in number of shakes)
Experimental: We worked with five groups of 8 rats each. The antinociception effect was evaluated via the formalin test (1% 50 μl); rats are placed in an observation chamber made of acrylic material. The nociceptive behavior was evaluated based on the number of shakes at the injected paw.
Used substances: saline solution, formalin (produces nociceptive effect), ketorolac, riboflavin and B-complex (vitamins B1, B6 and B12).
For the dose-response curve, each group received a 0.32-10 mg/kg of ketorolac dose, 6.25-100 mg/kg of riboflavin, 56-316 mg/kg of B-complex, ketorolac-B-complex combination and ketorolac-riboflavin combinations.
The antinociceptive effect was measured for sixty minutes. […] Acute or initial phase from 0 to 10 minutes and tonic phase from 15 to 60 minutes.
Curves for the number of shakes against time were plot and the area under the curve was obtained (AUC) for the second phase, using the trapezoids method.
The dose-response curve for each composition was obtained as the percentage of the maximum possible effect.
The antinociceptive effect of ketorolac, B-complex in ratios of 100:100:1 of B1, B6 and B12 (respectively), riboflavin, ketorolac-B-complex combination, and ketorolac-riboflavin combination were evaluated.
A saline solution was used as a negative control solution (base level).
Administration: riboflavin (alone), ketorolac (alone), B-complex (alone), ketorolac-riboflavin combination, and ketorolac-B-complex combination.

solubility in water [1]: highly soluble
stability when acid solutions are present [2]: decreases significantly
Compound: O=C(c1ccccc1)c1ccc2n1CCC2C(=O)O (racemic) [ketorolac, (±)-5(benzoyl)-2,3-dihydro-1N-pyrrolizine-1-carboxylic acid tris hydroxy methyl amino methane]
time to reach maximum plasma concentration (tmax) ([3]; intramuscular): 46 min
time to reach maximum plasma concentration (tmax) ([3]; oral): 53 min
excreted in feces ([3]; humans): 6%
excreted in urine ([3]; humans): 92%
antinociceptive effect (area under the latency curve as a function of time), dose-response [4]: dose-dependant response
ED25 [5]: 2.1 ± 0.5 mg/kg
Emax [5]: 36%

Compound: Cc1cc2nc3c(=O)[nH]c(=O)nc-3n(C[C@H](O)[C@H](O)[C@H](O)CO)c2cc1C [riboflavin, Riboflavin]
antinociceptive effect (area under the latency curve as a function of time), dose-response [4]: dose-dependant response
ED25 [5]: 39.8 ± 7.1 mg/kg
Emax [5]: 33%
